Experimental data published in patent US8546434B2, “Triazole compounds as KSP inhibitors” (Novartis AG, priority 2010, dated 2013).

target: motor domain of human KSP (Eg 5, KNSL1) (Homo sapiens (Human), UniProt P52732); test: Assay for determining KSP activity (microtubule-stimulated ATPase, Biomol Green phosphate detection); type: biochemical; settings: KSP motor domain 3 nM, bovine brain microtubules 50 μg/mL, 2 hours at RT, absorbance at 650 nm; read-out: Biological Activity (IC50)
Method: This example provides a representative in vitro assay for determining KSP activity in vitro. Purified microtubules obtained from bovine brain were purchased from Cytoskeleton Inc. (Denver, Colo., USA). The motor domain of human KSP (Eg 5, KNSL1) was cloned, expressed, and purified to greater than 95% homogeneity. Biomol Green was purchased from BIOMOL International L.P. (Plymouth Meeting, Pa., USA). The microtubules were rapidly thawed at 37° C. for 10 minutes before making dilution. Microtubules and KSP motor protein (i.e., the KSP motor domain) were diluted in assay buffer (20 mM Tris-HCl (pH 7.5), 1 mM MgCl2, 10 mM DTT and 0.125% BSA) to a final concentration of 50 μg/mL microtubules and 3 nM KSP.
To each well of the testing plate (96-well half area plate) containing 1.25 μL of inhibitor or test compound in DMSO (or DMSO only in the case of controls) were added 25 μL of ATP solution (ATP diluted to a concentration of 250 μM in assay buffer) and 25 μL of the above-described microtubule/KSP solution. The plates were incubated at RT for 2 hours. Following incubation, 65 μL of Biomol Green (a malachite green-based dye that detects the release of inorganic phosphate) with 0.015% Tween 20 was added to each well. The plates were incubated for an additional 15-20 minutes then the absorbance at 650 nm was determined using a Molecular Devices Spectrophotometer. The amount of absorbance at 650 nm corresponded to the amount of KSP activity in the samples. The IC50 of each inhibitor or test compound was then determined based on the decrease in absorbance at 650 nm at each concentration, via nonlinear regression using either XLFit for Excel or Prism data analysis software by GraphPad Software Inc.

Sequence of motor domain of human KSP (Eg 5, KNSL1) (P52732 18-359): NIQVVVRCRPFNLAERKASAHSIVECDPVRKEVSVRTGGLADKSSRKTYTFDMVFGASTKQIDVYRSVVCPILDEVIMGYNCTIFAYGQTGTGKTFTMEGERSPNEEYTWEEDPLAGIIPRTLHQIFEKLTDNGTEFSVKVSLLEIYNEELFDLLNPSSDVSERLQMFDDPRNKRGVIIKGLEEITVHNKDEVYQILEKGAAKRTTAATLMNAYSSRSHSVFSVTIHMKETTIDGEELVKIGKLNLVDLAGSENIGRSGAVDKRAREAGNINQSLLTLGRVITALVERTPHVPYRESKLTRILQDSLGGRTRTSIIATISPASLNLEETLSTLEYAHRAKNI

Structure (SMILES) | IC50 [pM]
C[C@H](O)C(=O)N(CC1CNC[C@@H]1F)[C@@H](c1nc(-c2cc(F)ccc2F)nn1Cc1ccccc1)C(C)(C)C (stereo in doubt) [Compound 4, (S)—N—((R)-1-(1-benzyl-3-(2,5-difluorophenyl)-1H-1,2,4-triazol-5-yl)-2,2-dimethylpropyl)-N-(((3R,4R)-4-fluoropyrrolidin-3-yl)methyl)-2-hydroxypropanamide] | 600
C[C@@H]1CN(C(=O)N(C[C@@H]2CNC[C@@H]2F)[C@@H](c2nc(-c3cc(F)ccc3F)nn2Cc2cccc(F)c2)C(C)(C)C)C[C@H](C)O1 (stereo in doubt) [Compound 3, N—((R)-1-(3-(2,5-difluorophenyl)-1-(3-fluorobenzyl)-1H-1,2,4-triazol-5-yl)-2,2-dimethylpropyl)-N-(((3R,4R)-4-fluoropyrrolidin-3-yl)methyl)-2,6-dimethylmorpholine-4-carboxamide] | 740
C[C@@H]1CN(C(=O)N(C[C@@H]2CNC[C@@H]2F)[C@@H](c2nc(-c3cc(F)ccc3F)nn2Cc2ccccc2)C(C)(C)C)C[C@H](C)O1 (stereo in doubt) [Compound 2, N—((R)-1-(1-benzyl-3-(2,5-difluorophenyl)-1H-1,2,4-triazol-5-yl)-2,2-dimethylpropyl)-N-(((3R,4R)-4-fluoropyrrolidin-3-yl)methyl)-2,6-dimethylmorpholine-4-carboxamide] | 830
CC(C)(C)C(c1nc(-c2cc(F)ccc2F)nn1Cc1cccc(F)c1)N(CC1CNC[C@@H]1F)C(=O)C1CCCO1 (stereo in doubt) [Compound 5, (S)—N—((R)-1-(3-(2,5-difluorophenyl)-1-(3-fluorobenzyl)-1H-1,2,4-triazol-5-yl)-2,2-dimethylpropyl)-N-(((3R,4R)-4-fluoropyrrolidin-3-yl)methyl)tetrahydrofuran-2-carboxamide] | 1460
CC(C)(C)[C@H](c1nc(-c2cc(F)ccc2F)nn1Cc1ccccc1)N(CC1CNC[C@@H]1F)C(=O)C1CCCO1 (stereo in doubt) [Compound 1, (S)—N—((R)-1-(1-benzyl-3-(2,5-difluorophenyl)-1H-1,2,4-triazol-5-yl)-2,2-dimethylpropyl)-N-(((3R,4R)-4-fluoropyrrolidin-3-yl)methyl)tetrahydrofuran-2-carboxamide] | 960
C[C@H](O)C(=O)N(CC1CNC[C@@H]1F)[C@@H](c1nc(-c2cc(F)ccc2F)nn1Cc1cccc(F)c1)C(C)(C)C (stereo in doubt) [Compound 6, (S)—N—((R)-1-(3-(2,5-difluorophenyl)-1-(3-fluorobenzyl)-1H-1,2,4-triazol-5-yl)-2,2-dimethylpropyl)-N-(((3R,4R)-4-fluoropyrrolidin-3-yl)methyl)-2-hydroxypropanamide] | 830

same assay, conditions: KSP motor domain 3 nM, bovine brain microtubules 50 μg/mL, 2 hours at RT, absorbance at 650 nm; read-out: KSP IC50

Structure (SMILES) | IC50 [pM]
COC(C)(C)[C@H](c1nc(-c2cc(F)ccc2F)nn1Cc1ccccc1)N(C[C@@H]1CNC[C@@H]1F)C(=O)[C@@H]1CCCO1 [Compound 13] | 690
COC(C)(C)[C@H](c1nc(-c2cc(F)ccc2F)nn1Cc1ccccc1)N(CC[C@H](N)CF)C(=O)[C@@H]1CCCO1 [Compound 11] | 1400
CCN1C[C@@H](CN(C(=O)[C@@H]2CCCO2)[C@@H](c2nc(-c3cc(F)ccc3F)nn2Cc2cccc(F)c2)C(C)(C)OC)[C@@H](F)C1 [Compound 9] | 49400
COC(C)(C)[C@H](c1nc(-c2cc(F)ccc2F)nn1Cc1cccc(F)c1)N(CC[C@H](N)CF)C(=O)[C@H](C)O [Compound 8] | 1490
COC(C)(C)[C@H](c1nc(-c2cc(F)ccc2F)nn1Cc1ccccc1)N(CC[C@H](N)CF)C(=O)[C@H](C)O [Compound 14] | 2340
COC(C)(C)[C@H](c1nc(-c2cc(F)ccc2F)nn1Cc1cccc(F)c1)N(C[C@@H]1CNC[C@@H]1F)C(=O)[C@H](C)O [Compound 12] | 870
COC(C)(C)[C@H](c1nc(-c2cc(F)ccc2F)nn1Cc1cccc(F)c1)N(C[C@@H]1CNC[C@@H]1F)C(=O)[C@@H]1CCCO1 [Compound 10] | 900
COC(C)(C)[C@H](c1nc(-c2cc(F)ccc2F)nn1Cc1cccc(F)c1)N(CC[C@H](N)CF)C(=O)[C@@H]1CCCO1 [Compound 7] | 1230
